Data from patent publication US20230017045A1, “PYRIDINE AND PYRIMIDINE CARBOXYLATE HERBICIDES AND METHODS OF USE THEREOF” (Dow AgroSciences LLC, priority 2017, published 2023).

System: test plant species
Experiment: Post-emergent herbicidal activity test (greenhouse, foliar spray, visual growth reduction)
Type: in vivo
Conditions: post-emergence, 336 h, ECHCG: barnyardgrass (Echinochloa crus-galli), 140 g ai/ha, 14 days after application, read-out: Visual Growth Reduction (%) 14 Days After Application, ECHCG
Procedure, shortened: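 Seedlings were raised 7-21 d in a greenhouse under a 15 h photoperiod until the first or second true leaf. Each compound, dissolved in acetone:DMSO 97:3 and diluted into a surfactant-containing spray mixture, was then applied at 187 L/ha. Plants were subirrigated, and growth reduction was scored visually at 14 d.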

For `O=C(O)c1nc(-c2ccc(C(F)(F)F)cc2Cl)c(F)cc1Cl` [F352, 3-chloro-6-(2-chloro-4-(trifluoromethyl)phenyl)-5-fluoropicolinic acid], which pest or weed control at 140 g/ha is on record?
Its pest or weed control at 140 g/ha is 95 to 100%.

For `COc1c(-c2nc(C(=O)O)c(Cl)cc2F)ccc(C(F)F)c1F` [F230, 3-Chloro-6-(4-(difluoromethyl)-3-fluoro-2-methoxyphenyl)-5-fluoropicolinic acid], which pest or weed control at 140 g/ha is on record?
Its pest or weed control at 140 g/ha is 60 to 74%.

Same assay, conditions: post-emergence, 336 h, IPOHE: ivy-leaf morning glory (Ipomoea hederacea), 140 g ai/ha, 14 days after application, read-out: Visual Growth Reduction (%) 14 Days After Application, IPOHE

With `O=C(O)c1nc(-c2ccc(C(F)(F)F)cc2Cl)c(F)cc1Cl` [F352, 3-chloro-6-(2-chloro-4-(trifluoromethyl)phenyl)-5-fluoropicolinic acid] as the compound, how does the pest or weed control at 140 g/ha read?
Its pest or weed control at 140 g/ha is 95 to 100%.

With `COc1c(-c2nc(C(=O)O)c(Cl)cc2F)ccc(C(F)F)c1F` [F230, 3-Chloro-6-(4-(difluoromethyl)-3-fluoro-2-methoxyphenyl)-5-fluoropicolinic acid] as the compound, how does the pest or weed control at 140 g/ha read?
The pest or weed control at 140 g/ha was 95 to 100%.

Same assay, conditions: post-emergence, 336 h, KCHSC: kochia (Bassia scoparia), 140 g ai/ha, 14 days after application, read-out: Visual Growth Reduction (%) 14 Days After Application, KCHSC

For `O=C(O)c1nc(-c2ccc(C(F)(F)F)cc2Cl)c(F)cc1Cl` [F352, 3-chloro-6-(2-chloro-4-(trifluoromethyl)phenyl)-5-fluoropicolinic acid], which pest or weed control at 140 g/ha is on record?
The pest or weed control at 140 g/ha was 85 to 94%.

How did the pest or weed control at 140 g/ha turn out when `COc1c(-c2nc(C(=O)O)c(Cl)cc2F)ccc(C(F)F)c1F` [F230, 3-Chloro-6-(4-(difluoromethyl)-3-fluoro-2-methoxyphenyl)-5-fluoropicolinic acid] was run?
The pest or weed control at 140 g/ha was 95 to 100%.

Same assay, conditions: post-emergence, 336 h, ORYSA: rice (Oryza sativa), 140 g ai/ha, 14 days after application, read-out: Visual Growth Reduction (%) 14 Days After Application, ORYSA

Which pest or weed control at 140 g/ha does the source give for `O=C(O)c1nc(-c2ccc(C(F)(F)F)cc2Cl)c(F)cc1Cl` [F352, 3-chloro-6-(2-chloro-4-(trifluoromethyl)phenyl)-5-fluoropicolinic acid] here?
The pest or weed control at 140 g/ha was 85 to 94%.

With `COc1c(-c2nc(C(=O)O)c(Cl)cc2F)ccc(C(F)F)c1F` [F230, 3-Chloro-6-(4-(difluoromethyl)-3-fluoro-2-methoxyphenyl)-5-fluoropicolinic acid] as the compound, how does the pest or weed control at 140 g/ha read?
Its pest or weed control at 140 g/ha is 0 to 29%.

Same assay, conditions: post-emergence, 336 h, SETFA: giant foxtail (Setaria faberi), 140 g ai/ha, 14 days after application, read-out: Visual Growth Reduction (%) 14 Days After Application, SETFA

`O=C(O)c1nc(-c2ccc(C(F)(F)F)cc2Cl)c(F)cc1Cl` [F352, 3-chloro-6-(2-chloro-4-(trifluoromethyl)phenyl)-5-fluoropicolinic acid] was tested. Which pest or weed control at 140 g/ha did it give?
The pest or weed control at 140 g/ha was 95 to 100%.

How did the pest or weed control at 140 g/ha turn out when `COc1c(-c2nc(C(=O)O)c(Cl)cc2F)ccc(C(F)F)c1F` [F230, 3-Chloro-6-(4-(difluoromethyl)-3-fluoro-2-methoxyphenyl)-5-fluoropicolinic acid] was run?
The pest or weed control at 140 g/ha was 30 to 44%.

Same assay, conditions: post-emergence, 336 h, SORVU: grain sorghum (Sorghum vulgare), 140 g ai/ha, 14 days after application, read-out: Visual Growth Reduction (%) 14 Days After Application, SORVU

With `O=C(O)c1nc(-c2ccc(C(F)(F)F)cc2Cl)c(F)cc1Cl` [F352, 3-chloro-6-(2-chloro-4-(trifluoromethyl)phenyl)-5-fluoropicolinic acid] as the compound, how does the pest or weed control at 140 g/ha read?
The pest or weed control at 140 g/ha was 95 to 100%.

How did the pest or weed control at 140 g/ha turn out when `COc1c(-c2nc(C(=O)O)c(Cl)cc2F)ccc(C(F)F)c1F` [F230, 3-Chloro-6-(4-(difluoromethyl)-3-fluoro-2-methoxyphenyl)-5-fluoropicolinic acid] was run?
Its pest or weed control at 140 g/ha is 60 to 74%.

Same assay, conditions: post-emergence, 336 h, STEME: common chickweed (Stellaria media), 140 g ai/ha, 14 days after application, read-out: Visual Growth Reduction (%) 14 Days After Application, STEME

How did the pest or weed control at 140 g/ha turn out when `O=C(O)c1nc(-c2ccc(C(F)(F)F)cc2Cl)c(F)cc1Cl` [F352, 3-chloro-6-(2-chloro-4-(trifluoromethyl)phenyl)-5-fluoropicolinic acid] was run?
The pest or weed control at 140 g/ha was 60 to 74%.

With `COc1c(-c2nc(C(=O)O)c(Cl)cc2F)ccc(C(F)F)c1F` [F230, 3-Chloro-6-(4-(difluoromethyl)-3-fluoro-2-methoxyphenyl)-5-fluoropicolinic acid] as the compound, how does the pest or weed control at 140 g/ha read?
Its pest or weed control at 140 g/ha is 0 to 29%.

Same assay, conditions: post-emergence, 336 h, TRZAS: wheat, spring (Triticum aestivum), 140 g ai/ha, 14 days after application, read-out: Visual Growth Reduction (%) 14 Days After Application, TRZAS

How did the pest or weed control at 140 g/ha turn out when `O=C(O)c1nc(-c2ccc(C(F)(F)F)cc2Cl)c(F)cc1Cl` [F352, 3-chloro-6-(2-chloro-4-(trifluoromethyl)phenyl)-5-fluoropicolinic acid] was run?
Its pest or weed control at 140 g/ha is 95 to 100%.

`COc1c(-c2nc(C(=O)O)c(Cl)cc2F)ccc(C(F)F)c1F` [F230, 3-Chloro-6-(4-(difluoromethyl)-3-fluoro-2-methoxyphenyl)-5-fluoropicolinic acid] was tested. Which pest or weed control at 140 g/ha did it give?
Its pest or weed control at 140 g/ha is 0 to 29%.

Same assay, conditions: post-emergence, 336 h, blackgrass (Alopecurus myosuroides), 14 Days After Application, 140 g ai/ha, read-out: Visual Growth Reduction (%) ALOMY

How did the pest or weed control at 140 g/ha turn out when `O=C(O)c1nc(-c2ccc(C(F)(F)F)cc2Cl)c(F)cc1Cl` [F352, 3-chloro-6-(2-chloro-4-(trifluoromethyl)phenyl)-5-fluoropicolinic acid] was run?
The pest or weed control at 140 g/ha was 75 to 84%.

With `COc1c(-c2nc(C(=O)O)c(Cl)cc2F)ccc(C(F)F)c1F` [F230, 3-Chloro-6-(4-(difluoromethyl)-3-fluoro-2-methoxyphenyl)-5-fluoropicolinic acid] as the compound, how does the pest or weed control at 140 g/ha read?
The pest or weed control at 140 g/ha was 0 to 29%.

Same assay, conditions: post-emergence, 336 h, canada thistle (Cirsium arvense), 14 Days After Application, 140 g ai/ha, read-out: Visual Growth Reduction (%) CIRAR

Which pest or weed control at 140 g/ha does the source give for `O=C(O)c1nc(-c2ccc(C(F)(F)F)cc2Cl)c(F)cc1Cl` [F352, 3-chloro-6-(2-chloro-4-(trifluoromethyl)phenyl)-5-fluoropicolinic acid] here?
Its pest or weed control at 140 g/ha is 95 to 100%.

How did the pest or weed control at 140 g/ha turn out when `COc1c(-c2nc(C(=O)O)c(Cl)cc2F)ccc(C(F)F)c1F` [F230, 3-Chloro-6-(4-(difluoromethyl)-3-fluoro-2-methoxyphenyl)-5-fluoropicolinic acid] was run?
The pest or weed control at 140 g/ha was 95 to 100%.

Same assay, conditions: post-emergence, 336 h, crabgrass (Digitaria sanguinalis), 14 Days After Application, 140 g ai/ha, read-out: Visual Growth Reduction (%) DIGSA

How did the pest or weed control at 140 g/ha turn out when `O=C(O)c1nc(-c2ccc(C(F)(F)F)cc2Cl)c(F)cc1Cl` [F352, 3-chloro-6-(2-chloro-4-(trifluoromethyl)phenyl)-5-fluoropicolinic acid] was run?
The pest or weed control at 140 g/ha was 95 to 100%.

How did the pest or weed control at 140 g/ha turn out when `COc1c(-c2nc(C(=O)O)c(Cl)cc2F)ccc(C(F)F)c1F` [F230, 3-Chloro-6-(4-(difluoromethyl)-3-fluoro-2-methoxyphenyl)-5-fluoropicolinic acid] was run?
Its pest or weed control at 140 g/ha is 0 to 29%.

Same assay, conditions: post-emergence, 336 h, lambsquarters (Chenopodium album), 14 Days After Application, 140 g ai/ha, read-out: Visual Growth Reduction (%) CHEAL

`O=C(O)c1nc(-c2ccc(C(F)(F)F)cc2Cl)c(F)cc1Cl` [F352, 3-chloro-6-(2-chloro-4-(trifluoromethyl)phenyl)-5-fluoropicolinic acid] was tested. Which pest or weed control at 140 g/ha did it give?
Its pest or weed control at 140 g/ha is 95 to 100%.

Which pest or weed control at 140 g/ha does the source give for `COc1c(-c2nc(C(=O)O)c(Cl)cc2F)ccc(C(F)F)c1F` [F230, 3-Chloro-6-(4-(difluoromethyl)-3-fluoro-2-methoxyphenyl)-5-fluoropicolinic acid] here?
The pest or weed control at 140 g/ha was 95 to 100%.

Same assay, conditions: post-emergence, 336 h, redroot pigweed (Amaranthus retroflexus), 14 Days After Application, 140 g ai/ha, read-out: Visual Growth Reduction (%) AMARE

How did the pest or weed control at 140 g/ha turn out when `O=C(O)c1nc(-c2ccc(C(F)(F)F)cc2Cl)c(F)cc1Cl` [F352, 3-chloro-6-(2-chloro-4-(trifluoromethyl)phenyl)-5-fluoropicolinic acid] was run?
The pest or weed control at 140 g/ha was 95 to 100%.

With `COc1c(-c2nc(C(=O)O)c(Cl)cc2F)ccc(C(F)F)c1F` [F230, 3-Chloro-6-(4-(difluoromethyl)-3-fluoro-2-methoxyphenyl)-5-fluoropicolinic acid] as the compound, how does the pest or weed control at 140 g/ha read?
The pest or weed control at 140 g/ha was 95 to 100%.

Same assay, conditions: post-emergence, 336 h, wild oat (Avena fatua), 14 Days After Application, 140 g ai/ha, read-out: Visual Growth Reduction (%) AVEFA

With `O=C(O)c1nc(-c2ccc(C(F)(F)F)cc2Cl)c(F)cc1Cl` [F352, 3-chloro-6-(2-chloro-4-(trifluoromethyl)phenyl)-5-fluoropicolinic acid] as the compound, how does the pest or weed control at 140 g/ha read?
Its pest or weed control at 140 g/ha is 85 to 94%.

With `COc1c(-c2nc(C(=O)O)c(Cl)cc2F)ccc(C(F)F)c1F` [F230, 3-Chloro-6-(4-(difluoromethyl)-3-fluoro-2-methoxyphenyl)-5-fluoropicolinic acid] as the compound, how does the pest or weed control at 140 g/ha read?
Its pest or weed control at 140 g/ha is 0 to 29%.

Same assay, conditions: post-emergence, 336 h, yellow nutsedge (Cyperus esculentus), 14 Days After Application, 140 g ai/ha, read-out: Visual Growth Reduction (%) CYPES

With `O=C(O)c1nc(-c2ccc(C(F)(F)F)cc2Cl)c(F)cc1Cl` [F352, 3-chloro-6-(2-chloro-4-(trifluoromethyl)phenyl)-5-fluoropicolinic acid] as the compound, how does the pest or weed control at 140 g/ha read?
The pest or weed control at 140 g/ha was 0 to 29%.

`COc1c(-c2nc(C(=O)O)c(Cl)cc2F)ccc(C(F)F)c1F` [F230, 3-Chloro-6-(4-(difluoromethyl)-3-fluoro-2-methoxyphenyl)-5-fluoropicolinic acid] was tested. Which pest or weed control at 140 g/ha did it give?
The pest or weed control at 140 g/ha was 0 to 29%.
